{"source": "patent US9121067B2", "about": "“Predictive marker for EGFR inhibitor treatment” (Hoffmann-La Roche Inc., priority 2007, dated 2015)", "key": {"[1]": {"test_system": "patients with advanced NSCLC following failure of at least one prior chemotherapy regimen", "test": "open-label Phase II predictive marker study, response assessment by RECIST", "assay_type": "in vivo, human", "description": "Based on the experience from the BR.21 study, benefiting population was defined as either having objective response, or disease stabilization for 12 weeks. Clinical and microarray datasets were analyzed according to a pre-defined statistical plan.\nThis was an open-label, predictive marker identification Phase II study. The study was conducted in approximately 26 sites in about 12 countries. 264 patients with advanced NSCLC following failure of at least one prior chemotherapy regimen were enrolled over a 12 month period. […] Dose reductions were permitted based on tolerability to drug therapy. Clinical and laboratory parameters were assessed to evaluate disease control and toxicity. Treatment continued until disease progression, unacceptable toxicity or death. The study design is depicted in FIG. 1.\nThe RECIST (Uni-dimensional Tumour Measurement) criteria were used to evaluate response.\nTo be assigned a status of CR or PR, changes in tumour measurements must be confirmed by repeated assessments at least 4 weeks apart at any time during the treatment period.\nIn the case of SD, follow-up measurements must have met the SD criteria at least once after study entry at a minimum interval of 6 weeks.\nIn the case of maintained SD, follow-up measurements must have met the SD criteria at least once after study entry with maintenance duration of at least 12 weeks."}, "[2]": {"test_system": "NSCLC patients for whom standard therapy for advanced disease has failed", "conditions": "single agent versus placebo; cited from earlier work"}, "[3]": {"conditions": "patients with cancer receiving 150 mg/day; 500 ng/ml is the average plasma concentration targeted for clinical efficacy; cited from earlier work"}, "[4]": {"conditions": "75 patients with qRT-PCR results"}, "[5]": {"conditions": "n = 102, benefit = objective response or disease stabilization for >=12 weeks"}, "[6]": {"conditions": "patients included in microarray analysis n = 102, oral 150 mg/day"}}}
{"smiles": "C#Cc1cccc(Nc2ncnc3cc(OCCOC)c(OCCOC)cc23)c1", "note": "[Tarceva, erlotinib]", "values": [{"measurement": "patients with PD", "setting": "[1]; [4]", "value": 52, "unit": "%"}, {"measurement": "patients with SD", "setting": "[1]; [4]", "value": 31, "unit": "%"}, {"measurement": "patients with partial response (PR)", "setting": "[1]; [4]", "value": 5, "unit": "%"}, {"measurement": "Clinical Benefit NO, n (%)", "setting": "[1]; [5]", "value": "81 (79.4%)"}, {"measurement": "Clinical Benefit YES, n (%)", "setting": "[1]; [5]", "value": "21 (20.6%)"}, {"measurement": "Best Response PD, n (%)", "setting": "[1]; [6]", "value": "49 (48.0%)"}, {"measurement": "Best Response PR, n (%)", "setting": "[1]; [6]", "value": "6 (5.9%)"}, {"measurement": "Best Response SD, n (%)", "setting": "[1]; [6]", "value": "31 (30.4%)"}, {"measurement": "survival", "setting": "[2]", "value": "significantly prolongs and improves the survival"}, {"measurement": "drug levels in plasma", "setting": "[3]", "value": "> 500", "unit": "ng/mL"}]}
